{"source": "patent US20230372346A1", "about": "“TREATMENT REGIMENS FOR EXON-20 INSERTION MUTANT EGFR CANCERS” (CULLINAN PEARL CORP., priority 2020, published 2023)", "key": {"[1]": {"test_system": "NSCLC cell lines harboring mutant EGFR", "conditions": "LXF 2478 and NCI-H1975 EGFR D770_N771insSVD cells; with inhibition of EGFR phosphorylation and induction of caspase 3/7; cited from earlier work"}, "[2]": {"test_system": "NSCLC harboring EGFR exon 20 insertion mutations", "assay": "Phase 1/2a study, antitumor activity (RECIST v1.1)", "format": "in vivo, human", "description": "This is a Phase 1/2a, open-label, multicenter, first-in-human trial to evaluate the safety and tolerability, PK, PD, and preliminary efficacy of CLN-081 in patients with non-small cell lung cancer (NSCLC) harboring epidermal growth factor receptor (EGFR) exon 20 insertion mutations.\nThe antitumor activity of study treatment will be assessed according to RECIST v1.1 guideline\nAs part of this phase 1/2 study, dose levels including 30, 45, 65, 100 and 150 mg BID were explored during the escalation phases. Efficacy expansions were initiated at 30, 65 and 100 mg BID. A Phase 2a expansion was initiated at 100 mg BID after meeting protocol specified safety and efficacy criteria. Tumor assessments were performed at baseline, after 6 weeks of CLN-081 administration and every 9 weeks thereafter."}}, "data": [{"smiles": "C=CC(=O)N[C@H]1C=C(C)c2c(-c3cnc4ccccc4c3)c3c(N)ncnc3n2C1", "note": "[Compound 1, (S)—N-(4-amino-6-methyl-5-(quinolin-3-yl)-8,9-dihydropyrimido[5,4-b]indolizin-8-yl)acrylamide]", "values": [{"measurement": "growth of NSCLC cells with EGFR exon 20 insertions", "setting": "[1]", "result": "suppressed the growth"}, {"measurement": "Best response PR, %", "setting": "[2]; 30 mg BID (n = 8)", "result": 38, "unit": "%"}, {"measurement": "Best response SD, %", "setting": "[2]; 30 mg BID (n = 8)", "result": 62, "unit": "%"}, {"measurement": "Confirmed response, %", "setting": "[2]; 30 mg BID (n = 8)", "result": 38, "unit": "%"}, {"measurement": "Disease Control Rate (PR + SD ≥ 6 mo), %", "setting": "[2]; 30 mg BID (n = 8)", "result": 62, "unit": "%"}, {"measurement": "Best response SD, %", "setting": "[2]; 45 mg BID (n = 1)", "result": 100, "unit": "%"}, {"measurement": "Best response PD, %", "setting": "[2]; 65 mg BID (n = 14)", "result": "(7) %"}, {"measurement": "Best response PR, %", "setting": "[2]; 65 mg BID (n = 14)", "result": "(50) %"}, {"measurement": "Best response SD, %", "setting": "[2]; 65 mg BID (n = 14)", "result": "(43) %"}, {"measurement": "Confirmed response, %", "setting": "[2]; 65 mg BID (n = 14)", "result": "(14) %"}, {"measurement": "Disease Control Rate (PR + SD ≥ 6 mo), %", "setting": "[2]; 65 mg BID (n = 14)", "result": "(57) %"}, {"measurement": "Pending confirmation, %", "setting": "[2]; 65 mg BID (n = 14)", "result": "(21) %"}, {"measurement": "Unconfirmed response, %", "setting": "[2]; 65 mg BID (n = 14)", "result": "(14) %"}, {"measurement": "Best response PR, %", "setting": "[2]; 100 mg BID (n = 13)", "result": "(54) %"}, {"measurement": "Best response SD, %", "setting": "[2]; 100 mg BID (n = 13)", "result": "(46) %"}, {"measurement": "Confirmed response, %", "setting": "[2]; 100 mg BID (n = 13)", "result": "(46) %"}, {"measurement": "Disease Control Rate (PR + SD ≥ 6 mo), %", "setting": "[2]; 100 mg BID (n = 13)", "result": "(69) %"}, {"measurement": "Unconfirmed response, %", "setting": "[2]; 100 mg BID (n = 13)", "result": "(8) %"}, {"measurement": "evaluable patients who achieved a PR", "setting": "[2]; 100 mg BID, 7/13, 6 confirmed and 1 unconfirmed", "result": 54, "unit": "%"}, {"measurement": "Best response PR, %", "setting": "[2]; 150 mg BID (n = 6)", "result": 67, "unit": "%"}, {"measurement": "Best response SD, %", "setting": "[2]; 150 mg BID (n = 6)", "result": 33, "unit": "%"}, {"measurement": "Confirmed response, %", "setting": "[2]; 150 mg BID (n = 6)", "result": 33, "unit": "%"}, {"measurement": "Disease Control Rate (PR + SD ≥ 6 mo), %", "setting": "[2]; 150 mg BID (n = 6)", "result": 83, "unit": "%"}, {"measurement": "Pending confirmation, %", "setting": "[2]; 150 mg BID (n = 6)", "result": 33, "unit": "%"}, {"measurement": "objective responses (all partial responses)", "setting": "[2]; 21 of 42 evaluable patients across dose levels", "result": 50, "unit": "%"}, {"measurement": "response-evaluable patients who remained on treatment at the data cut-off", "setting": "[2]; 22/42 across dose levels", "result": 52, "unit": "%"}, {"measurement": "Disease control (PR or SD ≥6 months)", "setting": "[2]; 27/42 across all doses", "result": 64, "unit": "%"}, {"measurement": "patients with stable disease (SD) or PR as the best response", "setting": "[2]; 41/42 across dose levels", "result": 98, "unit": "%"}, {"measurement": "patients with disease progression as the best response", "setting": "[2]; across dose levels", "result": "one"}, {"measurement": "antitumor activity", "setting": "[2]; heavily-pretreated patients, across EGFR Ins 20 variants and dose levels", "result": "encouraging antitumor activity"}, {"measurement": "dose cohorts in which partial responses were registered", "setting": "[2]; in vivo", "result": "all dose cohorts tested so far"}, {"measurement": "lowest dose cohort at which partial response was reported", "setting": "[2]; in vivo", "result": 30, "unit": "mg BID"}, {"measurement": "unconfirmed objective responses, patients", "setting": "[2]; of 21 responders, including 5 pending a confirmatory scan", "result": 8}, {"measurement": "confirmed objective responses, patients", "setting": "[2]; of the 21 patients achieving an objective response", "result": 13}, {"measurement": "response in patients previously treated with poziotinib and TAK788 (mobocertinib)", "setting": "[2]; some patients", "result": "partial responses"}]}]}
